Experimental data as given in article PMC5589090 (PLoS Medicine, 2017).
“And” between values parts separate entries of the source, which are not always exact repeats. Equal values may be shown once. Read-outs that look alike come from different tables or passages of the source.

Key:
HbF = HbF levels by HPLC; type: in vivo, human
Source text: Blood counts, blood chemistries, total bilirubin, HbF, LDH, and D-dimer levels were standard clinical pathology tests through the CLIA-certified Clinical Pathology Laboratory at the University of Illinois at Chicago. […] For quantification of F-cells by flow cytometry, peripheral blood samples were fixed and stained with phycoerythrin-conjugated anti-HbF (Caltag) per manufacturer’s instructions. A normal adult negative control and cord blood positive control were run with each Becton-Dickinson FacsCalibur (Sunnyvale, CA) analysis.

[1] = tested on: multiple intestinal adenomas; parameters: method as in ref 90 (a number printed in a supplementary file, which may have a reference list of its own: not looked up in the article's list); conditions: cited from earlier work
cancers = tested on: cancers; parameters: method as in ref 94 (a number printed in a supplementary file, which may have a reference list of its own: not looked up in the article's list); conditions: cited from earlier work
[2] = tested on: 10T1/2 cells and V79 cells; parameters: method as in ref 74 (a number printed in a supplementary file, which may have a reference list of its own: not looked up in the article's list); conditions: cited from earlier work
[3] = human starting dose 0.01 mg/kg
Experimental: To ensure safety in case of this possibility, decitabine pharmacokinetics are measured after single dose oral administration of decitabine and THU.

testicular cancer = tested on: testicular cancer; parameters: method as in ref 92 (a number printed in a supplementary file, which may have a reference list of its own: not looked up in the article's list); conditions: 20% incidence in controls; cited from earlier work
8 melanoma cell lines = tested on: 8 melanoma cell lines; parameters: method as in ref 21 (a number printed in a supplementary file, which may have a reference list of its own: not looked up in the article's list); conditions: two daily treatments 0.2 µM; cited from earlier work
[4] = cited from earlier work
[5] = cited from earlier work; for Cmax: read-out: decitabine Cmax
[6] = Blood counts, clinical pathology (total hemoglobin, reticulocytes, platelets, ANC, ALC, WBC); type: in vivo, human; conditions: cohorts 4 and 5, while total hemoglobin increased
Source text: Blood counts, blood chemistries, total bilirubin, HbF, LDH, and D-dimer levels were standard clinical pathology tests through the CLIA-certified Clinical Pathology Laboratory at the University of Illinois at Chicago.

[7] = tested on: Friend erythroleukemia cells; parameters: method as in ref 48 (a number printed in a supplementary file, which may have a reference list of its own: not looked up in the article's list); conditions: single exposure 0.4 µM; cited from earlier work
[8] = tested on: normal CD34+ hematopoietic stem and progenitor cells; conditions: cited from earlier work
[9] = cited from earlier work; remark: listed apart in the source
[10] = tested on: malignant tumor formation; parameters: method as in Berger MR. Proc Am Ass Cancer Res 1997;38:599; conditions: 6mg/kg of decitabine; controls 30-40%; ref Berger MR. Proc Am Ass Cancer Res 1997;38:599; cited from earlier work
[11] = two daily treatments 0.5 µM, ref Investigators Brochure
[12] = Table B1, baseline before treatment, per subject, r10 Mean ±SD
[13] = Table B1, last 20 of 36 weeks of treatment, per subject, r10 Mean ±SD

Nc1ncn([C@H]2C[C@H](O)[C@@H](CO)O2)c(=O)n1 [decitabine, 5-aza-2’-deoxycytidine]
HbF% increases by HPLC (HbF; decitabine 0.08 mg/kg and […] (cohorts 4 and 5)): increases by HPLC were observed
HbF% increases by HPLC (HbF; other decitabine dose levels (cohorts 1-3)): not with other decitabine dose levels
tumor development [1]: do not develop tumors
decrease of the incidence of cancers (cancers): 30%
mutagenicity [2]: either did not show mutagenicity or was weakly mutagenic
expected Cmax lower than Cmax […] with reversible toxicity in murine toxicology studies [3]: 3,920 fold
testicular cancer occurrence (testicular cancer): 0%
DNA damage (H2AX, CHK1, p53 phosphorylation, BAX, GADD45, comet assay) (8 melanoma cell lines): did not cause DNA damage
Platelet counts, average increase ([4]; at the 6th week): 2.2 fold
time to maximum HbF [4]: ≤ 4 weeks
Total Hb increase ([4]; in 6 of 8 subjects): 1 g/dL
transient decline in neutrophils ([4]; nadir at 6 weeks): 3 fold
lethal toxicity ([5]; decitabine 1.0 mg/kg + THU 167 mg/kg 2X/week for 9 weeks, ref Investigators Brochure): lethal toxicity in eight females and one male
toxicity in bone marrow, lymphoid and testicular tissue ([5]; decitabine 0.2 and 0.4 mg/kg + THU, ref Investigators Brochure): reversible toxicity
Cmax ([5]; low dose 0.2 mg/kg + THU 167 mg/kg oral gavage 2X/week, ref Investigators Brochure): 1500 nM
Cmax ([5]; mid dose 0.4 mg/kg + THU 167 mg/kg oral gavage 2X/week, ref Investigators Brochure): 2900 nM
Cmax ([5]; mouse, in vivo): 8600 nM
NOAEL ([5]; ref Investigators Brochure): no NOAEL
decrease of decitabine Cmax and AUC cal,0→180 on day 58 compared to day 1 ([5]; ref Investigators Brochure): ~ 30%
reticulocyte counts [6]: decreased
DNA methylation [7]: decreased DNA methylation
viability [7]: did not decrease viability
level that causes measurable DNA damage and apoptosis/cytotoxicity ([8]; peak drug level): > 1000 nM
DNMT1 depletion [8, 11]: substantially depleted DNMT1
phospho-H2AX, DNA scission or apoptosis [8, 11]: did not increase phospho-H2AX, DNA scission or apoptosis
cumulative hematologic or non-hematologic toxicities ([9]; 36 weeks, seven subjects): No cumulative hematologic or non-hematologic toxicities
ANC nadir at optimal drug dose ([9]; IV 0.3 mg/kg/day 5 days/week for 2 weeks, 6-week cycles): > 1500 cells/µL
HbF (%) Pre [9, 12]: 3.12 ± 2.75% and 0.8% and 6.8% and 1.4% and 0.6% and 2.9% and 6.2%
Total Hemoglobin Pre [9, 12]: 7.32 ± 0.94 g/dL and 6.2 g/dL and 8.2 g/dL and 6.0 g/dL and 7.2 g/dL and 8.0 g/dL and 7.8 g/dL
HbF (%) Avg [9, 13]: 13.93 ± 2.35% and 12.40 ± 1.25% and 14.55 ± 1.32% and 12.75 ± 2.28% and 10.80 ± 2.05% and 16.42 ± 2.81% and 16.70 ± 2.55%
HbF (%) Max [9, 13]: 18.35 ± 4.46% and 14.4% and 16.3% and 17.2% and 24.6% and 23.2%
Total Hemoglobin Avg [9, 13]: 8.81 ± 0.42 g/dL and 9.05 ± 0.48 g/dL and 9.37 ± 0.60 g/dL and 8.34 ± 0.55 g/dL and 8.28 ± 0.52 g/dL and 8.91 ± 0.57 g/dL and 8.92 ± 0.79 g/dL
Total Hemoglobin Max [9, 13]: 9.73 ± 0.53 g/dL and 9.6 g/dL and 10.3 g/dL and 9.5 g/dL and 9.0 g/dL and 10.4 g/dL
average HbF during the last twenty weeks of treatment ([9]; base-line […] ± 2.75%): 13.93 ± 2.35%
average maximal HbF during the last twenty weeks of treatment ([9]; base-line […] ± 2.75%): 18.35% ± 4.46%
maximal F-cell numbers, average over all 7 subjects [9]: 69 ± 10.12%
period of neutropenia [9]: 1 to 3 days
average hemoglobin ([9]; last 20 weeks, base-line of 7.23 ±2.35 g/dL): 8.81 ± 0.42 g/dL
average ANC during the last 20 weeks of treatment ([9]; pretreatment average 4600 ± 1560, in cells/µL (unit assumed)): 4200 ± 1350
individual maximal F-cell numbers ([9]; range over subjects): 58 - 87%
rate of malignant tumor formation [10]: 74-94%
